Data on 5 compounds can be found in PMC6364417, “Kinase inhibitor library screening identifies synergistic drug combinations effective in sensitive and resistant melanoma cells” (Journal of Experimental & Clinical Cancer Research : CR, 2019).

Common to all, as to assay: Kinase inhibitor library screening, PrestoBlue cell viability, 1 or 10 μM, 72 h
The test system of one test is 501Mel cells (parental). The conditions noted are these: 501Mel Parental, 72 h; for Cell viability in kinase inhibitor library screening, 501Mel Parental, 1μΜ / Cell viability in kinase inhibitor library screening, 501Mel Parental, 10μΜ: in %. The essentials:
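Parental cells and Vemurafenib-resistant (XP) or Dabrafenib-resistant (GP) derivatives were treated with library kinase inhibitors at 1 and 10 μM for 72 h. Viability measured by PrestoBlue and expressed as % of untreated cells, at least in duplicate.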

Test [1] concerns 501Mel-GP cells (Dabrafenib-resistant). The conditions noted are these: 501Mel GP, 72 h; for Cell viability in kinase inhibitor library screening, 501Mel GP, 1μΜ / Cell viability in kinase inhibitor library screening, 501Mel GP, 10μΜ: in %.
For test [2], the system named is 501Mel-XP cells (Vemurafenib-resistant). As to conditions: 501Mel XP, 72 h; for Cell viability in kinase inhibitor library screening, 501Mel XP, 1μΜ / Cell viability in kinase inhibitor library screening, 501Mel XP, 10μΜ: in %.
For another test, the system named is A375 cells (parental). As to conditions: A375 Parental, 72 h.
Test [3] concerns A375-GP cells (Dabrafenib-resistant). The conditions noted are these: A375 GP, 72 h.
Test [4] relates to A375-XP cells (Vemurafenib-resistant). The conditions noted are these: A375 XP, 72 h.
A further test relates to IGR37 cells (parental). As to conditions: IGR37 Parental, 72 h; for Cell viability in kinase inhibitor library screening, IGR37 Parental, 1μΜ / Cell viability in kinase inhibitor library screening, IGR37 Parental, 10μΜ: in %.
Test [5] deals with IGR37-GP cells (Dabrafenib-resistant). The conditions noted are these: IGR37 GP, 72 h; for Cell viability in kinase inhibitor library screening, IGR37 GP, 1μΜ: in %.
Test [6] concerns IGR37-XP cells (Vemurafenib-resistant). As to conditions: IGR37 XP, 72 h; for Cell viability in kinase inhibitor library screening, IGR37 XP, 1μΜ: in %.

On to `Nc1nc(N)c2nc(-c3cccc(O)c3)c(-c3cccc(O)c3)nc2n1` [TG100-115], for which the “Cell viability in kinase inhibitor library screening, 501Mel Parental, 1μΜ” value with 501Mel cells (parental) (1μΜ) came to 99.2. Also, the “Cell viability in kinase inhibitor library screening, 501Mel Parental, 10μΜ” value in the test with 501Mel cells (parental) (10μΜ) was determined as 89.6. For the same compound, in test [1] (1μΜ), the “Cell viability in kinase inhibitor library screening, 501Mel GP, 1μΜ” value is recorded as 107.0. Also, the “Cell viability in kinase inhibitor library screening, 501Mel GP, 10μΜ” value in test [1] (10μΜ) worked out at 81.4. Also, the “Cell viability in kinase inhibitor library screening, 501Mel XP, 1μΜ” value in test [2] (1μΜ) came to 97.0. The “Cell viability in kinase inhibitor library screening, 501Mel XP, 10μΜ” value in [2] (10μΜ) was determined as 81.6. Moreover, the “Cell viability in kinase inhibitor library screening, A375 Parental, 10μΜ” value with A375 cells (parental) (10μΜ) was found to be 88.3. The “Cell viability in kinase inhibitor library screening, A375 Parental, 1μΜ” value in the test with A375 cells (parental) (1μΜ) is 100.3. Further, in test [3] (1μΜ), the “Cell viability in kinase inhibitor library screening, A375 GP, 1μΜ” value is on record as 100.0. Besides, the “Cell viability in kinase inhibitor library screening, A375 GP, 10μΜ” value in [3] (10μΜ) is on record as 91.7. The “Cell viability in kinase inhibitor library screening, A375 XP, 1μΜ” value in [4] (1μΜ) came to 103.9. In addition, in the test on IGR37 cells (parental) (1μΜ), the “Cell viability in kinase inhibitor library screening, IGR37 Parental, 1μΜ” value is given as 97.1. Besides, the “Cell viability in kinase inhibitor library screening, IGR37 Parental, 10μΜ” value in the test with IGR37 cells (parental) was found to be 98.5. The compound also gave a Cell viability in kinase inhibitor library screening, IGR37 GP, 10μΜ in test [5] (10μΜ) of 89.4%. Moreover, the “Cell viability in kinase inhibitor library screening, IGR37 GP, 1μΜ” value in test [5] is recorded as 96.0. Moreover, the Cell viability in kinase inhibitor library screening, IGR37 XP, 10μΜ in test [6] (10μΜ) was found to be 70.9%.

As for `CC(C)(C)Cn1c(N)nc2ccc(-c3[nH]c(C(C)(C)C)nc3-c3ccc(F)cc3)nc21` [LY2228820], in the test on 501Mel cells (parental) (1μΜ), the “Cell viability in kinase inhibitor library screening, 501Mel Parental, 1μΜ” value is on record as 95.6. Besides, the “Cell viability in kinase inhibitor library screening, 501Mel Parental, 10μΜ” value with 501Mel cells (parental) (10μΜ) worked out at 91.9. The “Cell viability in kinase inhibitor library screening, 501Mel GP, 1μΜ” value in test [1] (1μΜ) turned out to be 108.2. Besides, in test [2] (1μΜ), the “Cell viability in kinase inhibitor library screening, 501Mel XP, 1μΜ” value worked out at 97.0. In addition, the “Cell viability in kinase inhibitor library screening, 501Mel XP, 10μΜ” value in test [2] (10μΜ) came out at 82.4. For the same compound, in the test on A375 cells (parental) (10μΜ), the “Cell viability in kinase inhibitor library screening, A375 Parental, 10μΜ” value stood at 91.0. In addition, in the test with A375 cells (parental) (1μΜ), the “Cell viability in kinase inhibitor library screening, A375 Parental, 1μΜ” value is listed as 105.7. In addition, the “Cell viability in kinase inhibitor library screening, A375 GP, 1μΜ” value in test [3] (1μΜ) was 105.3. For the same compound, the “Cell viability in kinase inhibitor library screening, A375 GP, 10μΜ” value in test [3] (10μΜ) came to 79.1. For the same compound, in [4] (1μΜ), the “Cell viability in kinase inhibitor library screening, A375 XP, 1μΜ” value came to 100.0. Further, the “Cell viability in kinase inhibitor library screening, A375 XP, 10μΜ” value in test [4] (10μΜ) was 84.7. Besides, in the test with IGR37 cells (parental), the “Cell viability in kinase inhibitor library screening, IGR37 Parental, 10μΜ” value turned out to be 98.8. The same compound came in with a Cell viability in kinase inhibitor library screening, IGR37 GP, 10μΜ in test [5] (10μΜ) of 82.8%. Also, the “Cell viability in kinase inhibitor library screening, IGR37 GP, 1μΜ” value in test [5] was 90.6. The Cell viability in kinase inhibitor library screening, IGR37 XP, 10μΜ in test [6] (10μΜ) was 38.4%. In addition, the “Cell viability in kinase inhibitor library screening, IGR37 XP, 1μΜ” value in [6] (1μΜ) was determined as 91.6.

Turning to `CC(=O)c1c(C)c2cnc(Nc3ccc(N4CCNCC4)cn3)nc2n(C2CCCC2)c1=O.Cl` [PD 0332991 (Palbociclib) HCl], the “cell viability (kinase inhibitor library screening)” value in the test on 501Mel cells (parental) (1μΜ) is recorded as 89.7%; in the test on 501Mel cells (parental) (10μΜ) it was 80.1%; in test [1] (1μΜ), 83.8%; in [1] (10μΜ), 66.3%; in [2] (1μΜ), 76.9%; in test [2] (10μΜ), 25.1%. Besides, the “cell viability (kinase inhibitor library screening)” value was 59.1% with A375 cells (parental) (10μΜ); 78.9% in the test on A375 cells (parental) (1μΜ); 77.9% in test [3] (1μΜ); 57.2% in [3] (10μΜ); 74.5% in [4] (1μΜ); 63.1% in test [4] (10μΜ). The “cell viability (kinase inhibitor library screening)” value in the test on IGR37 cells (parental) (1μΜ) stood at 96.5%; in test [5] (10μΜ), 78.0%; in test [6] (1μΜ) it was 98.1%; in [6] (10μΜ), 28.9%.

Take `O=C1NC(=O)/C(=C\c2ccc3nccnc3c2)S1` [AS-605240]: the “Cell viability in kinase inhibitor library screening, 501Mel Parental, 1μΜ” value with 501Mel cells (parental) (1μΜ) is recorded as 104.7. In the test with 501Mel cells (parental) (10μΜ), the “Cell viability in kinase inhibitor library screening, 501Mel Parental, 10μΜ” value was determined as 92.3. For the same compound, the “Cell viability in kinase inhibitor library screening, 501Mel GP, 1μΜ” value in test [1] (1μΜ) was determined as 107.4. Further, the “Cell viability in kinase inhibitor library screening, 501Mel GP, 10μΜ” value in test [1] (10μΜ) stood at 73.8. Besides, in test [2] (1μΜ), the “Cell viability in kinase inhibitor library screening, 501Mel XP, 1μΜ” value came out at 98.5. Further, the “Cell viability in kinase inhibitor library screening, 501Mel XP, 10μΜ” value in [2] (10μΜ) is listed as 72.2. In addition, in the test with A375 cells (parental) (10μΜ), the “Cell viability in kinase inhibitor library screening, A375 Parental, 10μΜ” value was determined as 76.5. In addition, in the test with A375 cells (parental) (1μΜ), the “Cell viability in kinase inhibitor library screening, A375 Parental, 1μΜ” value came to 99.1. Besides, in test [3] (1μΜ), the “Cell viability in kinase inhibitor library screening, A375 GP, 1μΜ” value is on record as 97.7. Further, in test [3] (10μΜ), the “Cell viability in kinase inhibitor library screening, A375 GP, 10μΜ” value worked out at 71.1. Further, the “Cell viability in kinase inhibitor library screening, A375 XP, 10μΜ” value in test [4] (10μΜ) amounted to 81.1. Moreover, the “Cell viability in kinase inhibitor library screening, IGR37 Parental, 1μΜ” value with IGR37 cells (parental) (1μΜ) was 99.2. For the same compound, the “Cell viability in kinase inhibitor library screening, IGR37 Parental, 10μΜ” value with IGR37 cells (parental) was 94.0. Moreover, the Cell viability in kinase inhibitor library screening, IGR37 GP, 10μΜ in test [5] (10μΜ) was found to be 70.4%. The “Cell viability in kinase inhibitor library screening, IGR37 GP, 1μΜ” value in test [5] was 91.2. Also, the “Cell viability in kinase inhibitor library screening, IGR37 XP, 1μΜ” value in test [6] (1μΜ) came to 98.2.

On to `O=C1NC(=O)C(=Cc2ccc(-c3ccc(F)cc3)o2)S1` (stereo in doubt) [CAY10505], for which the “Cell viability in kinase inhibitor library screening, 501Mel Parental, 1μΜ” value in the test with 501Mel cells (parental) (1μΜ) is listed as 99.8. Also, the “Cell viability in kinase inhibitor library screening, 501Mel Parental, 10μΜ” value in the test with 501Mel cells (parental) (10μΜ) is on record as 97.3. Further, in [1] (1μΜ), the “Cell viability in kinase inhibitor library screening, 501Mel GP, 1μΜ” value was 96.4. Besides, the “Cell viability in kinase inhibitor library screening, 501Mel GP, 10μΜ” value in test [1] (10μΜ) is reported as 89.6. Besides, the “Cell viability in kinase inhibitor library screening, 501Mel XP, 1μΜ” value in [2] (1μΜ) is listed as 99.8. Besides, the “Cell viability in kinase inhibitor library screening, 501Mel XP, 10μΜ” value in [2] (10μΜ) was found to be 90.3. Further, the “Cell viability in kinase inhibitor library screening, A375 Parental, 10μΜ” value with A375 cells (parental) (10μΜ) worked out at 93.9. Moreover, the “Cell viability in kinase inhibitor library screening, A375 Parental, 1μΜ” value in the test with A375 cells (parental) (1μΜ) amounted to 105.4. Moreover, in [3] (1μΜ), the “Cell viability in kinase inhibitor library screening, A375 GP, 1μΜ” value amounted to 99.9. In addition, the “Cell viability in kinase inhibitor library screening, A375 XP, 1μΜ” value in test [4] (1μΜ) is listed as 107.0. The “Cell viability in kinase inhibitor library screening, A375 XP, 10μΜ” value in test [4] (10μΜ) is 110.5. Also, the “Cell viability in kinase inhibitor library screening, IGR37 Parental, 1μΜ” value in the test on IGR37 cells (parental) (1μΜ) is recorded as 103.7. Besides, the “Cell viability in kinase inhibitor library screening, IGR37 Parental, 10μΜ” value in the test with IGR37 cells (parental) amounted to 103.3. The Cell viability in kinase inhibitor library screening, IGR37 GP, 10μΜ in [5] (10μΜ) was 94.4%. In test [5], the “Cell viability in kinase inhibitor library screening, IGR37 GP, 1μΜ” value came out at 98.2. The Cell viability in kinase inhibitor library screening, IGR37 XP, 10μΜ in test [6] (10μΜ) is 77.3%.
